Molecular target: Human Factor D (Homo sapiens (Human), UniProt P00746)
Test: Human Factor D assay
Type: biochemical
Conditions: Factor D inhibition, substrate Z-L-Lys-SBzl
Description: Human Factor D (purified from human serum, Complement Technology, Inc.) at 80 nM final concentration is incubated with test compound at various concentrations for 5 min at room temperature in 50 mM Tris, 1M NaCl, pH 7.5. A synthetic substrate Z-L-Lys-SBzl and DTNB (Ellman's reagent) are added to final concentrations of 100 μM each. […] IC50 values are calculated by nonlinear regression of complement Factor D reaction rates as a function of test compound concentration.

Human Factor D, sequence (P00746 26-253): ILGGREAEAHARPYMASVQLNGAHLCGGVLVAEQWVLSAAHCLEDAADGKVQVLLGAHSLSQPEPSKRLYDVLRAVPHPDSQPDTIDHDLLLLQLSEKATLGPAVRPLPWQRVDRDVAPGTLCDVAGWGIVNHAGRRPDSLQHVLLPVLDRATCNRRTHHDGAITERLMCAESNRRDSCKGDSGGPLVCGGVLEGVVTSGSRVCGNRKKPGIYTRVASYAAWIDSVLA

CC[C@@H](C(=O)Nc1cccc(Br)n1)N(C)C(=O)Cn1nc(C(C)=O)c2cc(-c3cnc(C)nc3)ccc21 [Compound 598, (S)-2-(2-(3-Acetyl-5-(2-methylpyrimidin-5-yl)-1H-indazol-1-yl)-N-methylacetamido)-N-(6-bromopyridin-2-yl)butanamide]
IC50 (Table 4): 1 to 10 µM

CC(=O)c1nn(CC(=O)N2CCC[C@@H](CNC(=O)c3cccc(Br)n3)C2)c2ccc(-c3cnc(C)nc3)cc12 [Compound 543, (S)—N-((1-(2-(3-Acetyl-5-(2-methylpyrimidin-5-yl)-1H-indazol-1-yl)acetyl)piperidin-3-yl)methyl)-6-bromopicolinamide]
IC50 (Table 4): > 10 µM

CC(=O)c1nn(CC(=O)N2C[C@H](F)C[C@H]2CS(=O)(=O)c2cccc(Br)n2)c2ccc(-c3cnc(C)nc3)cc12 [Compound 603, 2-(3-Acetyl-5-(2-methylpyrimidin-5-yl)-1H-indazol-1-yl)-1-((2S,4R)-2-(((6-bromopyridin-2-yl)sulfonyl)methyl)-4-fluoropyrrolidin-1-yl)ethan-1-one]
IC50 (Table 4): > 10 µM

CC(=O)c1nn(CC(=O)N2C[C@H](F)C[C@H]2CC(=O)Nc2cccc(Br)n2)c2ccc(-c3cnc(C)nc3)cc12 [Compound 580, 2-((2R,4R)-1-(2-(3-Acetyl-5-(2-methylpyrimidin-5-yl)-1H-indazol-1-yl)acetyl)-4-fluoropyrrolidin-2-yl)-N-(6-bromopyridin-2-yl)acetamide]
IC50 (Table 4): > 10 µM

CC(=O)c1nn(CC(=O)N2C[C@H](F)C[C@H]2CC(=O)NO)c2ccc(-c3cnc(C)nc3)cc12 [Compound 592, 2-((2R,4R)-1-(2-(3-Acetyl-5-(2-methylpyrimidin-5-yl)-1H-indazol-1-yl)acetyl)-4-fluoropyrrolidin-2-yl)-N-hydroxyacetamide]
IC50 (Table 4): > 10 µM

C/C(=N\O)c1nn(CC(=O)N2C[C@H](F)C[C@H]2C(=O)Nc2cccc(Br)n2)c2ccc(-c3cnc(C)nc3)cc12 [Compound 555, (2S,4R)—N-(6-Bromopyridin-2-yl)-4-fluoro-1-(2-(3-((E)-1-(hydroxyimino)ethyl)-5-(2-methylpyrimidin-5-yl)-1H-indazol-1-yl)acetyl)pyrrolidine-2-carboxamide]
IC50 (Table 4): < 1 µM

CC(=O)c1nn(CC(=O)N2C[C@H](F)C[C@H]2C(=O)SCc2cccc(Cl)c2F)c2ccc(-c3cnc(C)nc3)cc12 [Compound 516, S-(3-Chloro-2-fluorobenzyl) (2S,4R)-1-(2-(3-acetyl-5-(2-methylpyrimidin-5-yl)-1H-indazol-1-yl)acetyl)-4-fluoropyrrolidine-2-carbothioate]
IC50 (Table 3): 1 to 10 µM

CC(=O)c1cn(CC(=O)N2C[C@H](F)C[C@H]2C(=O)Nc2cccc(Br)n2)c2ccc(-c3cnc(O[C@@H]4CO[C@H]5[C@@H]4OC[C@H]5O)nc3)cc12 [Compound 502, (2S,4R)-1-(2-(3-Acetyl-5-(2-((3R,3aR,6R,6aR)-6-hydroxyhexahydrofuro[3,2-b]furan-3-yloxy)pyrimidin-5-yl)-1H-indol-1-yl)acetyl)-N-(6-bromopyridin-2-yl)-4-fluoropyrrolidine-2-carboxamide]
IC50 (Table 3): < 1 µM

C=CCCCCCCCCCNc1ncc(-c2ccc3c(c2)c(C(C)=O)nn3CC(=O)O)cn1 [Compound 535, 2-(3-acetyl-5-(2-(undec-10-en-1-ylamino)pyrimidin-5-yl)-1H-indazol-1-yl)acetic acid]
IC50 (Table 4): > 10 µM

COC(=O)[C@@H]1C[C@@H](F)CN1C(=O)Cn1nc(C(C)=O)c2cc(-c3cnc(C)nc3)ccc21 [Compound 513, (2S,4R)-methyl 1-(2-(3-acetyl-5-(2-methylpyrimidin-5-yl)-1H-indazol-1-yl)acetyl)-4-fluoropyrrolidine-2-carboxylate]
IC50 (Table 3): > 10 µM

CC[C@H](C(=O)Nc1cccc(Br)n1)N(C)C(=O)Cn1nc(C(C)=O)c2cc(-c3cnc(C)nc3)ccc21 [Compound 597, (R)-2-(2-(3-acetyl-5-(2-methylpyrimidin-5-yl)-1H-indazol-1-yl)-N-methylacetamido)-N-(6-bromopyridin-2-yl)butanamide]
IC50 (Table 4): > 10 µM

COc1cc(CC(=O)N2C[C@H](F)C[C@H]2C(=O)Nc2cccc(-c3ccccc3Cl)c2F)cc(-c2cnc(C)nc2)c1 [Compound 636, (2S,4R)—N-(2′-chloro-2-fluoro-[1,1′-biphenyl]-3-yl)-4-fluoro-1-(2-(3-methoxy-5-(2-methylpyrimidin-5-yl)phenyl)acetyl)pyrrolidine-2-carboxamide]
IC50 (Table 4): < 1 µM

CC(=O)c1nn(CC(=O)N2C[C@H](F)C[C@H]2C(=O)Nc2ccc3c(S(=O)(=O)O)cccc3c2)c2ccc(-c3cnc(C)nc3)cc12 [Compound 511, 6-((2S,4R)-1-(2-(3-Acetyl-5-(2-methylpyrimidin-5-yl)-1H-indazol-1-yl)acetyl)-4-fluoropyrrolidine-2-carboxamido)naphthalene-1-sulfonic Acid]
IC50 (Table 3): 1 to 10 µM

CC(=O)c1nn(CC(=O)N2C[C@H](F)C[C@H]2[C@H](O)Cc2cccc(Br)n2)c2ccc(-c3cnc(C)nc3)cc12 [Compound 540, 2-(3-Acetyl-5-(2-methylpyrimidin-5-yl)-1H-indazol-1-yl)-1-((2S,4R)-2-((R)-2-(6-bromopyridin-2-yl)-1-hydroxyethyl)-4-fluoropyrrolidin-1-yl)ethanone]
IC50 (Table 4): 1 to 10 µM

Cc1cccc(NC(=O)[C@@H]2CCC(F)CCN2C(=O)Cn2cc(C(N)=O)c3cc(-c4ccc5cccnc5c4)ccc32)n1 (stereo partly drawn) [Compound 602, 1-(2-((2S)-5-Fluoro-2-((6-methylpyridin-2-yl)carbamoyl)azepan-1-yl)-2-oxoethyl)-5-(quinolin-7-yl)-1H-indole-3-carboxamide]
IC50 (Table 4): > 10 µM

CC(=O)c1nn(CC(=O)NCc2ccccc2CC(=O)O)c2ccc(-c3cnc(C)nc3)cc12 [Compound 536, 2-(2-((2-(3-acetyl-5-(2-methylpyrimidin-5-yl)-1H-indazol-1-yl)acetamido)meth-yl)phenyl)acetic acid]
IC50 (Table 4): > 10 µM

CC(=O)c1cn(CC(=O)NC(CC(F)(F)F)C(=O)Nc2cccc(-c3ccccc3Cl)c2F)c2ccc(-c3cnc(C)nc3)cc12 (stereo not drawn) [Compound 507, 2-(2-(3-Acetyl-5-(2-methylpyrimidin-5-yl)-1H-indol-1-yl)acetamido)-N-(2′-chloro-2-fluorobiphenyl-3-yl)-4,4,4-trifluorobutanamide]
IC50 (Table 3): > 10 µM

Cc1cccc(NC(=O)[C@@H]2CC=CCN2C(=O)Cn2cc(C(N)=O)c3cc(-c4cnc5cc(C)nn5c4)ccc32)n1 [Compound 612, (S)-5-(2-Methylpyrazolo[1,5-a]pyrimidin-6-yl)-1-(2-(2-((6-methylpyridin-2-yl)carbamoyl)-3,6-dihydropyridin-1 (2H)-yl)-2-oxoethyl)-1H-indole-3-carboxamide]
IC50 (Table 4): > 10 µM

Cc1ccc(-c2ccc3c(c2)c(C(N)=O)cn3CC(=O)N2CCC(F)CC[C@H]2C(=O)Nc2cccc(C)n2)cn1 (stereo partly drawn) [Compound 586, 1-(2-((2S)-5-Fluoro-2-((6-methylpyridin-2-yl)carbamoyl)azepan-1-yl)-2-oxoethyl)-5-(6-methylpyridin-3-yl)-1H-indole-3-carboxamide]
IC50 (Table 4): > 10 µM

CC(=O)c1nn(CC(=O)N2C[C@H](F)C[C@H]2C(=O)N2CCn3c(nnc3C(F)(F)F)C2)c2ccc(-c3cnc(C)nc3)cc12 [Compound 524, 2-(3-acetyl-5-(2-methylpyrimidin-5-yl)-1H-indazol-1-yl)-1-((2S,4R)-4-fluoro-2-(3-(trifluoromethyl)-5,6,7,8-tetrahydro-[1,2,4]triazolo[4,3-a]pyrazine-7-carbonyl)pyrrolidin-1-yl)ethanone]
IC50 (Table 3): > 10 µM

CC(=O)c1nn(CC(=O)N2C[C@H](F)C[C@H]2CC(=O)O)c2ccc(-c3cnc(C)nc3)cc12 [Compound 577, 2-((2R,4R)-1-(2-(3-Acetyl-5-(2-methylpyrimidin-5-yl)-1H-indazol-1-yl)acetyl)-4-fluoropyrrolidin-2-yl)acetic Acid]
IC50 (Table 4): > 10 µM

CC(=O)c1nn(CC(=O)N2CCC[C@@H](C(=O)NCc3cccc(Br)n3)C2)c2ccc(-c3cnc(C)nc3)cc12 [Compound 642]
IC50 (Table 4): > 10 µM

COC(=O)Cc1ccccc1CNC(=O)Cn1nc(C(C)=O)c2cc(-c3cnc(C)nc3)ccc21 [Compound 537, methyl 2-(2-((2-(3-acetyl-5-(2-methylpyrimidin-5-yl)-1H-indazol-1-yl)acetamido)meth-yl)phenyl)acetate]
IC50 (Table 4): > 10 µM

CCOP(=O)(OCC)OC[C@@]12C[C@@H](C(=O)Nc3cccc(Br)n3)N(C(=O)Cn3nc(C(C)=O)c4cc(-c5cnc(C)nc5)ccc43)[C@@H]1C2 [Compound 582, ((1R,3S,5S)-2-(2-(3-Acetyl-5-(2-methylpyrimidin-5-yl)-1H-indazol-1-yl)acetyl)-3-(6-bromopyridin-2-ylcarbamoyl)-2-azabicyclo[3.1.0]hexan-5-yl)methyl diethyl phosphate]
IC50 (Table 4): < 1 µM

Cc1cccc(NC(=O)[C@@H]2CCC(F)CCN2C(=O)Cn2cc(C(N)=O)c3cc(-c4cccc(C#N)c4)ccc32)n1 (stereo partly drawn) [Compound 591, 5-(3-Cyanophenyl)-1-(2-((2S)-5-fluoro-2-(6-methylpyridin-2-ylcarbamoyl)azepan-1-yl)-2-oxoethyl)-1H-indole-3-carboxamide]
IC50 (Table 4): > 10 µM

Cc1cccc(NC(=O)[C@@H]2CCC(F)CCN2C(=O)Cn2cc(C(N)=O)c3cc(-c4ccc5ccccc5c4)ccc32)n1 (stereo partly drawn) [Compound 594, 1-(2-((2S)-5-Fluoro-2-((6-methylpyridin-2-yl)carbamoyl)azepan-1-yl)-2-oxoethyl)-5-(naphthaalen-2-yl)-1H-indole-3-carboxamide]
IC50 (Table 4): > 10 µM

CC(=O)c1nn(CC(=O)N2C[C@H](F)C[C@H]2c2nnc(CCCC(F)(F)F)[nH]2)c2ccc(-c3cnc(C)nc3)cc12 [Compound 584, 2-(3-Acetyl-5-(2-methylpyrimidin-5-yl)-1H-indazol-1-yl)-1-((2S,4R)-4-fluoro-2-(5-(4,4,4-trifluorobutyl)-4H-1,2,4-triazol-3-yl)pyrrolidin-1-yl)ethan-1-one]
IC50 (Table 4): 1 to 10 µM

Reference: patent publication US11407738B2 (Achillion Pharmaceuticals, Inc., priority 2015, dated 2022)
